Assay [1] relates to NIH-3T3 cells. In words: Western blot of NIH-3T3 cells (collagen I, GCN2, ATF4, PC). The assay is classed as cell-based, mouse. From the text:
PSCs were isolated from C57BL/6 mice by differential centrifugation as previously described^49 and their mesenchymal origin was validated by analyzing the expression of various mesenchymal and epithelial markers. MFBs were isolated from FVB/N mice by differential centrifugation as previously described^50. DB7 mouse breast cancer cells were obtained from Alexander Borowsky (University of California Davis Comprehensive Cancer Center, Sacramento, CA, USA) through an MTA to Ohio State University (OSU). KPC (Kras^LSL-G12D; Trp53^LSL-R172H; Pdx1-Cre) mouse PDAC cells were a gift from Scott Lowe (Memorial Sloan Kettering Cancer Center. (MSKCC)). All cells were cultured at 37° C. in 5% carbon dioxide (CO2) and 20% oxygen (O2) and were maintained in Dulbecco's Modified Eagles medium (DMEM) (25 mM D-glucose, 2 mM L-glutamine) supplemented with 10% fetal bovine serum (FBS) (Gemini), 100 units/ml penicillin and 100 μg/ml streptomycin. Primary PSC and MFB cells were kept in culture for no more than ten passages. Experiments with iCAFs and myCAFs were performed as previously described^29. In brief, qPSCs were generated by culturing PSCs in a dome of GFR Matrigel (Corning) in DMEM; iCAFs were generated by culturing PSCs in a dome of GFR Matrigel in DMEM conditioned by KPC cells for 48 h; myCAFs were generated by monolayer culture of PSCs. Differentiation was validated by analyzing the expression of iCAF/myCAF markers^29. For experiments with different glutamine concentrations, cells were seeded in regular DMEM and the medium was changed 5-6 hours later or the following day to glucose and glutamine-free DMEM supplemented with 10% dialyzed FBS (Gemini) and 20 mM D-glucose, 2 mM L-glutamine (100%), 0.4 mM L-glutamine (20%) or 0.2 mM L-glutamine (10%). All media were prepared by the Media Preparation Facility at MSKCC. Cells were verified as mycoplasma-free by the MycoAlert Mycoplasma Detection Kit (Lonza).
Lysates were generated by incubating cells or ground tumors in RIPA buffer (Millipore); […] of cleared lysate were analyzed by SDS-polyacrylamide gel electrophoresis (SDS-PAGE) as previously described^11. […] The following secondary antibodies were used: anti-rabbit horseradish peroxidase (HRP) (1:5,000; GE, NA934V), anti-mouse HRP (1:5,000; GE, NA931). Quantification of band intensities of collagen I relative to […] or vinculin in tumor allograft experiments was performed with Image Lab software v6.0 (Bio-Rad).
For orientation: A western blot detects proteins with antibodies after separation by electrophoresis.

The subject of assay [2] is pyruvate carboxylase (PC). In words: Stable isotope tracing in NIH-3T3 cells (surrogate for PC activity). The assay is classed as cell-based, mouse. The protocol: Cells were plated in six-well cell culture plates at a concentration aimed to reach 0.5-1×10^6 cells at the time of harvest. For quantification of relative metabolite abundance, cells were cultured with glutamine-free DMEM containing different concentrations of L-glutamine and supplemented with 10% dialyzed FBS and in some experiments were treated with TGFβ for 48 hours. For the [U-^13C]and [3,4-^13C]glucose tracing experiments, cells were cultured as above, and in the last 8 hours media was replaced with DMEM without D-glucose and L-glutamine supplemented with 2 mM or 0.2 mM L-glutamine and 10 mM [U-^13C]or [3,4-^13C]D-glucose (Cambridge Isotope Laboratories) and 10% dialyzed FBS. For the [U-^13C]and [1-^13C]lactate tracing experiments, cells were cultured in 2 or 0.2 mM L-glutamine, 10 or 1 mM D-glucose in the presence or absence of 10 mM sodium lactate, and in the last 8 hours media was replaced with DMEM without D-glucose and L-glutamine supplemented with 2 mM or 0.2 mM L-glutamine, 10 or 1 mM D-glucose, 10 mM [U-^13C]or [1-^13C]sodium lactate (Cambridge Isotope Laboratories) and 10% dialyzed FBS. For relative quantification of metabolites by gas chromatography-mass spectroscopy (GC-MS), cells were washed briefly with PBS, which was then fully aspirated and metabolism was quenched by immediately adding 1 mL of 80:20 methanol:water stored at −80° C. containing 20 μM deuterated 2-hydroxyglutarate (d5-2HG) as an internal standard. For stable isotope tracing experiments, metabolism was quenched without the PBS washing step by adding 1 mL of 80:20 methanol:water as above. After overnight incubation at −80° C., the resulting extracts were scraped on dry ice, transferred into a 1.5 mL centrifuge tube, and centrifuged at 20,000 g for 20 minutes at 4° C. The supernatants were collected in clean tubes and dried in a vacuum evaporator (Genevac EZ-2 Elite) for 2 hours.
For [U-^13C]glucose tracing into proteinogenic amino acids, cells were cultured in 10% Gln in the presence or absence of TGFβ for 48 hours. In the last 24 hours, the media including all treatments was replaced with DMEM without L-glutamine and D-glucose and supplemented with 0.2 mM L-glutamine and 10 mM [U-^13C]D-glucose (Cambridge Isotope Laboratories) and 10% dialyzed FBS. For [U-^13C]lactate tracing into ECM, confluent cells were cultured in 10% Gln in the presence of 10 mM [U-^13C]sodium lactate for 6 days. The media was replaced every other day. ECM was decellularized as described above. Cells and ECM were washed with PBS, and proteins were precipitated with methanol:chloroform:water (1:1:1). The interphase was washed with methanol, and the dried pellet was subjected to acid hydrolysis with 6 N hydrochloric acid (HCl) and incubation at 95° C. for 16 hours. Samples were cooled to room temperature and centrifuged at 20,000 g for 10 minutes. The cleared supernatant was dried in a vacuum evaporator (Genevac EZ-2 Elite) for 2 hours, and abundance of aspartate, glutamate/glutamine or hydroxyproline isotopologues was measured by GC-MS as described below.
GC-MS measurements were performed as described before^11. Ions used for quantification of metabolite levels were as follows: d5-2HG m/z 354; citrate m/z 465; alpha-ketoglutarate m/z 304; succinate m/z 247; fumarate m/z 245; malate m/z 335; aspartate m/z 232; hydroxyproline m/z 332; proline m/z 216; glutamate m/z 246; glutamine m/z 245; lactate m/z 219; pyruvate m/z 174. All peaks were manually inspected and verified relative to known spectra for each metabolite. Peak identification and integration were done with MassHunter software vB.09 (Agilent Technologies). For relative quantification of cell samples, integrated peak areas were normalized to the internal standard d5-2HG and to the packed cell volume of each sample. Absolute quantification of hydroxyproline in tumor acid hydrolysates was performed against a standard curve of commercial trans-4-hydroxy-L-proline (Sigma). […]

Assay [3] concerns NIH-3T3 cells. The note with it: proliferative fibroblasts, glutaminase inhibition; cited from earlier work.
[4] abbreviates: 10% Gln, TGFβ, 48 hours (FIG. 1G).

Structures are written as SMILES.

Turning to `O=C(Cc1cccc(OC(F)(F)F)c1)Nc1ccc(CCCCc2nnc(NC(=O)Cc3ccccn3)s2)nn1` [CB839], the “collagen I protein levels” value in assay [1] (setting [4]) is “only marginally increased”. Further, the “rescue of GCN2 activation induced by TGFβ treatment” value in assay [1] (setting [4]) is “did not rescue”. The “collagen I levels” value in assay [1] (PC-deleted cells (PC sgRNA), CB839, 48 hours (FIG. 4H)) is “reduced collagen I levels”; in assay [1] (full medium (100% Gln), CB839 1 μM alone, 48 hours (FIG. 4E)), “did not affect”. In assay [2] (100% Gln, CB839, 48 hours (FIG. 4G)), the “m+1 labelling of aspartate and pyruvate carboxylation activity from [3,4-13C]Glc” value is given as “increased”. Further, the “m+3 labelling of TCA cycle intermediates and related NEAAs from [U-13C]Glc” value in assay [2] (CB839, 48 hours (FIG. 4F), indicative of anaplerosis via PC) is listed as “increased”. In addition, the Gln-tRNA charging entry in assay [3] is “restored”.

The values are drawn from patent US20260152533A1, “COMBINATION INHIBITORS FOR TREATING FIBROSIS” (Memorial Sloan-Kettering Cancer Center, priority 2021, published 2026).
